We go through three compounds from patent US20180201647A1, “Peptoid” (The University of Durham, priority 2015, published 2018).

Type in all cases: cell-based
Experiment [1] deals with T. cruzi Tulahuen strain C2C4. In words: microbe, parasite or virus in culture. To be noted: for IC50: in L-6 cells, 96 h. On the procedure: Rat skeletal myoblasts (L-6 cells) were seeded in 96-well microtitre plates at 2000 cells/well in 100 μL RPMI 1640 medium with 10% FBS and 2 mM 1-glutamine. After 24 h the medium was removed and replaced by 100 μl per well containing 5000 trypomastigote forms of T. cruzi Tulahuen strain C2C4 containing the β-galactosidase (Lac Z) gene. After 48 h the medium was removed from the wells and replaced by 100 μl fresh medium with or without a serial drug dilution of eleven 3-fold dilution steps covering a range from 100 to 0.002 μg/ml. After 96 h of incubation the plates were inspected under an inverted microscope to assure growth of the controls and sterility. Then the substrate CPRG/Nonidet (50 μl) was added to all wells. A color reaction developed within 2-6 h and could be read photometrically at 540 nm. Data were analyzed with the graphic programme Softmax Pro (Molecular Devices), which calculated IC50 values by linear regression from the sigmoidal dose inhibition curves. Benznidazole is used as control (IC50 0.5+0.2 μg/ml).

Experiment [2] has as its system Escherichia coli K12 W3110. As for the experimental part:
(§1) Species used in MIC assays included gram-negative Escherichia coli K12 W3110, Pseudomonas aeruginosa laboratory strain PAO2 and Serratia marcescens laboratory strain and gram-positive Staphylococcus aureus NCTC 6571 and Micrococcus luteus laboratory strain.
(§2) Bacterial cultures were prepared by streaking the bacterial strains on to agar plates with an inoculation loop and incubating overnight at 37° C. A single colony was then selected and placed in 5 mL of Iso-Sensitest broth using an inoculation loop and incubated at 37° C. with shaking overnight.
(§3) MIC values were attained according to the protocol described by J. M. Andrews et al. [J. M. Andrews, J. Antimicrob. Chemother., 2001, 48, 5-16] and were conducted in 96-well microtitre plates in triplicate. 10-50 μL of each overnight culture was inoculated into 1.2 mL of Iso-Sensitest broth and grown at 37° C. with shaking. […] The inoculum was diluted ten-fold with Iso-Sensitest broth before use (to ˜10^3 cfu/spot). Peptide solutions were initially dissolved in DMSO (5 mg mL^−1) and then diluted further with Iso-Sensitest broth to achieve a concentration range of 4 mgL^−1 to 512 mgL^−1 using 2-fold serial dilutions. Samples were vortexed between dilutions where necessary to aid dissolution. 50 μL of inoculum and 50 μL of peptide solution were added to each test well to achieve a final concentration range of 2 mgL^−1 to 256 mgL^−1. Separate dilutions of ampicillin and DMSO were made up in a similar manner to act as a positive antibacterial control and a +DMSO control, respectively. 50 μL of inoculum and 50 μL of Iso-Sensitest broth were used as a positive control and 100 μL of inoculum was used as a negative control. Positive and negatives controls were conducted multiple times in parallel per plate. […] Quantitative data were attained as A650nm values using a BioTek® Synergy™ H4 Hybrid Multi-Mode Microplate Reader.

The test system of experiment [3] is Pseudomonas aeruginosa laboratory strain PAO2. On the procedure:
as §1, §2, §3

The subject of experiment [4] is Serratia marcescens laboratory strain. Particulars: 16 h. On the procedure:
as §1, §2, §3

Experiment [5] has as its system Staphylococcus aureus NCTC 6571. As for the experimental part:
as §1, §2, §3

Experiment [6] deals with S. aureus (NCTC 6571) biofilm. Briefly: Single species biofilm treatment, crystal violet assay. To be noted: 100 μM peptoid, 24 hours, FIG. 17B. As for the experimental part: C. albicans (NCTC 3179) was subcultured aerobically on Sabouraud agar plates and propagated in yeast peptone dextrose broth. E. coli (ATCC 29522) and S. aureus (NCTC 6571) were grown on blood agar plates and propagated in brain heart infusion (BHI) broth.
Overnight cultures of C. albicans were washed and resuspended in a modified RPMI-1640 (Sigma-Aldrich, St Louis, USA) medium to yield an inoculum of 1.0×10^6 cells/ml. Overnight cultures of S. aureus or E. coli were washed and resuspended in brain heart infusion broth (Oxoid, Basingstoke, UK) to yield an inoculum of 5.0×10^6 cells/ml. A total volume of 100 μl of each inoculum was added to microtitre plate wells (Thermo Fisher Scientific, Roskilde, Denmark). An initial biofilm was allowed to form for 4 hours. Wells were washed three times with 200 μl PBS to facilitate removal of planktonic cells and the biofilms were then treated with 100 μM of peptoids 1-4 in the appropriate broth. Plates were incubated for a further 24 hours to allow biofilm maturation. After removal of planktonic cells by washing, biofilms were quantified by the crystal violet assay or by PMA-qPCR.
Biofilm quantification by crystal violet assay Washed biofilms were fixed with 100 μl methanol for 10 minutes. Following removal of methanol, the wells were air dried and stained with crystal violet solution (Clin-Tech Ltd, Guildford, UK) for 20 minutes at room temperature. Excess stain was removed by washing, the plate was then air dried and bound crystal violet was re-solubilised in 16 μl 33% acetic acid prior to reading at 570 nm in a microtitre plate reader (Tecan GENios, Ziirich, Switzerland).

For experiment [7], the system named is Trypanosoma brucei rhodesiense STIB900. As for the experimental part:
This stock was isolated in 1982 from a human patient in Tanzania and after several mouse passages cloned and adapted to axenic culture conditions. Minimum Essential Medium (50 μl) supplemented with 25 mM HEPES, 1 g/l additional glucose, 1% MEM non-essential amino acids (100×), 0.2 mM 2-mercaptoethanol, 1 mM Na-pyruvate and 15% heat inactivated horse serum was added to each well of a 96-well microtiter plate. Serial drug dilutions of eleven 3-fold dilution steps covering a range from 100 to 0.002 μg/ml were prepared. Then 4×10^3 bloodstream forms of T. b. rhodesiense STIB 900 in 50 μl was added to each well and the plate incubated at 37° C. under a 5% CO2 atmosphere for 70 h. 10 μl Alamar Blue (resazurin, 12.5 mg in 100 ml double-distilled water) was then added to each well and incubation continued for a further 2-4 h. Then the plates were read with a Spectramax Gemini XS microplate fluorometer (Molecular Devices Cooperation, Sunnyvale, Calif., USA) using an excitation wave length of 536 nm and an emission wave length of 588 nm. The IC50 values were calculated by linear regression from the sigmoidal dose inhibition curves using SoftmaxPro software (Molecular Devices Cooperation, Sunnyvale, Calif., USA). Melarsoprol (Arsobal Sanofi-Aventis, received from WHO) is used as control.

Experiment [8] has as its system L. donovani strain MHOM/ET/67/L82 axenic amastigotes. On the procedure:
Amastigotes of L. donovani strain MHOM/ET/67/L82 were grown in axenic culture at 37° C. in SM medium^24 at pH 5.4 supplemented with 10% heat-inactivated fetal bovine serum under an atmosphere of 5% CO2 in air. One hundred microlitres of culture medium with 10^5 amastigotes from axenic culture with or without a serial drug dilution were seeded in 96-well microtitre plates. Serial drug dilutions of eleven 3-fold dilution steps covering a range from 90 to 0.002 μg/ml were prepared. After 70 h of incubation the plates were inspected under an inverted microscope to assure growth of the controls and sterile conditions. 10 μl of Alamar Blue (12.5 mg resazurin dissolved in 100 ml distilled water) were then added to each well and the plates incubated for another 2 h. Then the plates were read with a Spectramax Gemini XS microplate fluorometer (Molecular Devices Cooperation, Sunnyvale, Calif., USA) using an excitation wave length of 536 nm and an emission wave length of 588 nm. Data were analyzed using the software Softmax Pro (Molecular Devices Cooperation, Sunnyvale, Calif., USA). Decrease of fluorescence (=inhibition) was expressed as percentage of the fluorescence of control cultures and plotted against the drug concentrations. From the sigmoidal inhibition curves the IC50 values were calculated.

In experiment [9] the test system is erythrocytic stages of P. falciparum. On the procedure:
In vitro activity against erythrocytic stages of P. falciparum was determined using a 3H-hypoxanthine incorporation assay using the drug sensitive NF54 strain (Schipol airport) or the chloroquine and pyrimethamine resistant K1 strain that originate from Thailand and the standard drug chloroquine (Sigma C6628). Compounds were dissolved in DMSO at 10 mg/ml and added to parasite cultures incubated in RPMI 1640 medium without hypoxanthine, supplemented with HEPES (5.94 g/l), NaHCO3 (2.1 g/1), neomycin (100 U/ml), Albumax® (5 g/l) and washed human red cells A^+ at 2.5% haematocrit (0.3% parasitaemia). Serial drug dilutions of eleven 3-fold dilution steps covering a range from 100 to 0.002 μg/ml were prepared. The 96-well plates were incubated in a humidified atmosphere at 37° C.; 4% CO2, 3% O2, 93% N2. After 48 h 50 μl of 3H-hypoxanthine (=0.5 μCi) was added to each well of the plate. The plates were incubated for a further 24 h under the same conditions. The plates were then harvested with a Betaplate™ cell harvester (Wallac, Zurich, Switzerland), and the red blood cells transferred onto a glass fibre filter then washed with distilled water. The dried filters were inserted into a plastic foil with 10 ml of scintillation fluid, and counted in a Betaplate™ liquid scintillation counter (Wallac, Zurich, Switzerland). IC50 values were calculated from sigmoidal inhibition curves by linear regression using Microsoft Excel. Chloroquine and artemisinin are used as control.

The mark [10] stands for this setting: second figure of cell, 37° C., 16 h, Iso-Sensitest broth.

Like-named read-outs stand apart in the source and are kept apart here. *1 amine or outer side, *2 acyl side, *3 side chain or, on linkers, in order; H or OH if unused. Where a SMILES comes first, the peptide text is derived from it. [ ]: non-standard residue; d: D form. Gly(N-2-aminoethyl) = NCCNCC(=O)O; X1 = N=C(N)NCCN(CC(=O)[*:2])[*:1]; Nspe = C[C@H](NCC(=O)O)c1ccccc1; NhArg = N=C(N)NCCCCNCC(=O)O; Nlys = NCCCCNCC(=O)O

The term IC50 denotes the concentration needed to halve the response being measured. Regarding `O=C(Cn1ccnc1[N+](=O)[O-])NCc1ccccc1` [Benznidazole, reference compound], the IC50 in [1] (Trypanosoma cruzi, TULAHUEN, L6, control drug, read-out: IC50 T. cruzi, control) is 0.5 µg/mL.
Take `C[C@@H](c1ccccc1)N(CC(N)=O)C(=O)CN(C(=O)CN(CCCCN)C(=O)CN(C(=O)CN(C(=O)CN(CCCCN)C(=O)CN(C(=O)CN(C(=O)CN(CCCCNC(=N)N)C(=O)CN(C(=O)CN(C(=O)CNCCCCN)[C@@H](C)c1ccccc1)[C@@H](C)c1ccccc1)[C@@H](C)c1ccccc1)[C@@H](C)c1ccccc1)[C@@H](C)c1ccccc1)[C@@H](C)c1ccccc1)[C@@H](C)c1ccccc1` [Peptoid 3, (NLys-Nspe-Nspe)(NhArg-Nspe-Nspe)(NLys-Nspe-Nspe)2] (H-[Nlys][Nspe][Nspe][NhArg][Nspe][Nspe][Nlys][Nspe][Nspe][Nlys][Nspe][Nspe]-NH2; N-terminus assumed): the “MIC E. coli” value in [2] (K12, 16 h) came out at 17 µM; in [2] (setting [10]) it was 32 mgL^−1. Moreover, the “MIC P. aeruginosa” value is 17 µM in [3] (laboratory strain PAO2, 16 h) and 32 mgL^−1 in [3] (setting [10]). The “MIC S. marcescens” value stood at 134 µM in experiment [4] (laboratory strain) and 256 mgL^−1 in [4] (second figure of cell, 37° C., Iso-Sensitest broth). Moreover, the “MIC S. aureus” value in experiment [5] (NCTC 6571, 16 h) amounted to 17 µM; in experiment [5] (setting [10]), 32 mgL^−1. Also, the “activity against the S. aureus biofilm” value in [6] is listed as “strongest anti-bacterial activity”.
Turning to `C[C@@H](c1ccccc1)N(CC(N)=O)C(=O)CN(C(=O)CN(CCN)C(=O)CN(C(=O)CN(C(=O)CN(CCNC(=N)N)C(=O)CN(C(=O)CN(C(=O)CN(CCN)C(=O)CN(C(=O)CN(C(=O)CNCCNC(=N)N)[C@@H](C)c1ccccc1)[C@@H](C)c1ccccc1)[C@@H](C)c1ccccc1)[C@@H](C)c1ccccc1)[C@@H](C)c1ccccc1)[C@@H](C)c1ccccc1)[C@@H](C)c1ccccc1` [Peptoid 6, [(NnArgNspeNspe)(NaeNspeNspe)]2] (H-[X1][Nspe][Nspe][Gly(N-2-aminoethyl)][Nspe][Nspe][X1][Nspe][Nspe][Gly(N-2-aminoethyl)][Nspe][Nspe]-NH2; N-terminus assumed), the concentration for half-maximal inhibition (IC50) in experiment [7] (70 h) worked out at 6.44 µM; in [1] (read-out: IC50 T. cruzi) it was 6.58 µM; in experiment [8] (strain MHOM/ET/67/L82 axenic amastigotes, 70 h), 9.51 µM; in [9] (strain (NF54 or K1) not given) it was 0.99 µM. Also, the “active against T. brucei rhodesiense” value in experiment [7] (statement in words) was “active”. Moreover, the “active against T. cruzi” value in [1] (statement in words) is listed as “active”. Further, the “active against L. donovani” value in experiment [8] (statement in words) was “active”. In [9] (statement in words), the “active against P. falciparum” value is “active”.
